The subject of series [1] is Human immunodeficiency virus 1. Briefly: Antiviral activity against wild type HIV-1 IIIB infected in human MT4 cells assessed as protection against virus-induced cytopathic effect incubated for 72 hrs by MTT assay. The conditions noted are these: Human immunodeficiency virus 1, IIIB, MT4, 72 h. It is filed as functional, organism-based.
The subject of series [2] is MT4. As to the kind of experiment: Cytotoxicity against human MT4 cells. The series is classed as functional.
Series [3] concerns Human immunodeficiency virus 1. As to the kind of experiment: Antiviral activity against wild type HIV-1 IIIB infected in human MT4 cells assessed as reduction in cytopathic effect measured after 4 days by MTT assay. It is filed as functional, organism-based. The conditions noted are these: Human immunodeficiency virus 1, IIIB, MT4, 96 h. For orientation: Damage to the host cells serves as the signal in cytopathic effect assays.

Series [4] concerns Human immunodeficiency virus 1. Briefly: Antiviral activity against […] infected in human MT4 cells assessed as reduction in cytopathic effect measured after 4 days by MTT assay. The series is classed as functional, organism-based. The conditions noted are these: Human immunodeficiency virus 1, IIIB, MT4, 96 h.
Series [5] has as its system Human immunodeficiency virus 1. As to the kind of experiment: Antiviral activity against wild type HIV-1 IIIB harboring Y181C/K103N double mutant infected in human MT4 cells assessed as reduction in cytopathic effect measured after 4 days by MTT assay. It is filed as functional, organism-based. To be noted: Human immunodeficiency virus 1, IIIB, MT4, 96 h.
Series [6] has as its system MT4. Briefly: Cytotoxicity against human MT4 cells assessed as reduction in cell viability incubated for 4 days by MTT assay. The series is classed as functional. To be noted: MT4, 96 h, time 4 day. For orientation: Formazan colour is commonly taken as a measure of viable cells.
A short description of series [7]: Selectivity index, ratio of CC50 for human MT4 cells to EC50 for antiviral activity against HIV1 infected in human MT4 cells. The series is classed as toxicity, cell-based. The conditions noted are these: read-out: Ratio CC50/EC50.
Series [8] concerns MT4. Briefly: Cytotoxicity against human MT4 cells assessed as reduction in cell viability after 5 days by MTT assay. The series is classed as functional. The conditions noted are these: MT4, 120 h, time 5 day.
Series [9] concerns Human immunodeficiency virus 1. As to the kind of experiment: Antiviral activity against HIV-1 infected in human MT4 cells assessed as reduction in virus-induced cytopathic effect incubated for 5 days by Cell Titer-Glo luminescent assay. The series is classed as functional, organism-based. The conditions noted are these: Human immunodeficiency virus 1, MT4, 120 h.
Series [10] addresses T1, Human immunodeficiency virus type 1 reverse transcriptase (Human immunodeficiency virus 1, UniProt Q72547). As to the kind of experiment: Inhibition of recombinant HIV-1 reverse transcriptase associated RNA-dependent DNA polymerase activity incubated for 30 mins by liquid scintillation method.
Series [11] deals with Human immunodeficiency virus 1. As to the kind of experiment: Antiviral activity against HIV-1 infected in human MT4 cells. The series is classed as functional, organism-based. The conditions noted are these: Human immunodeficiency virus 1, MT4.
The subject of series [12] is MT2. As to the kind of experiment: Cytotoxicity against human MT2 cells. It is filed as functional.
In series [13] the test system is Human immunodeficiency virus 1. Briefly: Antiviral activity against wild type HIV-1 IIIB infected in human MT4 cells assessed as protection against virus-induced cytopathic effect incubated for 5 days by MTT assay. It is filed as functional. To be noted: Human immunodeficiency virus 1, IIIB, MT4, 120 h; time 5 day; read-out: ED50 (the source's name).
The subject of series [14] is Human immunodeficiency virus 1. As to the kind of experiment: Antiviral activity against HIV-1 3B infected in human MT4 cells assessed as reduction in viral replication incubated for 5 days by MTT assay. It is filed as functional, organism-based. The conditions noted are these: Human immunodeficiency virus 1, 3B, MT4, 120 h.
Series [15] concerns MT4. Briefly: Cytotoxicity against human MT4 cells assessed as reduction in cell growth incubated for 5 days by MTT assay. The series is classed as functional. To be noted: MT4, 120 h, time 5 day.
The subject of series [16] is Human immunodeficiency virus 1. As to the kind of experiment: Antiviral activity against wild type HIV-1 NL4-3 infected in human MT4 cells assessed as reduction in viral replication measured for 72 hrs by ELISA analysis. The series is classed as functional, organism-based. To be noted: Human immunodeficiency virus 1, NL4-3, MT4, 72 h. (In an ELISA, binding on a coated surface is turned into a signal by an enzyme label.)

Series [17] has as its system Human immunodeficiency virus 1. Briefly: Antiviral activity against HIV-1 NL4-3 harboring infected K103N mutant infected in human MT4 cells assessed as reduction in viral replication. To be noted: Human immunodeficiency virus 1, NL4-3, MT4. It is filed as functional, organism-based.
Series [18] has as its system Human immunodeficiency virus 1. As to the kind of experiment: Antiviral activity against HIV-1 NL4-3 harboring infected Y181C mutant infected in human MT4 cells assessed as reduction in viral replication. To be noted: Human immunodeficiency virus 1, NL4-3, MT4. It is filed as functional, organism-based.
Series [19] concerns Human immunodeficiency virus 1. As to the kind of experiment: Antiviral activity against HIV-1 NL4-3 harboring infected Y188L mutant infected in human MT4 cells assessed as reduction in viral replication. The conditions noted are these: Human immunodeficiency virus 1, NL4-3, MT4. The series is classed as functional, organism-based.
Series [20] addresses T2, Reverse transcriptase (Human immunodeficiency virus 1, UniProt Q9WKE8, K103N). As to the kind of experiment: Binding affinity to HIV-1 reverse transcriptase K103N mutant assessed as inhibition constant.
Series [21] can be described thus: Binding affinity to HIV-1 reverse transcriptase Y181L mutant assessed as inhibition constant. Set-up: species or system Human immunodeficiency virus 1.
Series [22] deals with T2, Reverse transcriptase. As to the kind of experiment: Inhibition of HIV-1 Reverse transcriptase K103N mutant.
Series [23] relates to Human immunodeficiency virus 1. Briefly: Antiviral activity against wild type HIV-1 NL4-3 infected in human MT4 cells assessed as reduction in viral replication. It is filed as functional, organism-based. The conditions noted are these: Human immunodeficiency virus 1, NL4-3, MT4; read-out: EC50.
Series [24] has as its system MT4. As to the kind of experiment: Cytotoxicity against human MT4 cells assessed as reduction in cell growth after 5 days by MTT assay. It is filed as functional. The conditions noted are these: MT4, 120 h, time 5 day.
The target in series [25] is T1, Human immunodeficiency virus type 1 reverse transcriptase. As to the kind of experiment: Inhibition of wild type HIV-1 Reverse transcriptase.
Series [26] has as its system Human immunodeficiency virus 1. As to the kind of experiment: Antiviral activity against wild-type HIV-1 IIIB infected in human MT4 cells assessed as reduction in virus-induced cytopathic effect incubated for 5 days by MTT assay. The series is classed as functional, organism-based. To be noted: Human immunodeficiency virus 1, IIIB, MT4, 120 h.
The test system of series [27] is Human immunodeficiency virus 1. Briefly: Antiviral activity against HIV-1 harboring protease V82F mutant infected in human C8166 cells assessed as inhibition of viral replication measured for 72 hrs by spectrophotometric MTT assay. The series is classed as functional, organism-based. The conditions noted are these: Human immunodeficiency virus 1, C8166, 72 h.
Series [28] can be described thus: Cytotoxicity against African green monkey Vero cells assessed as reduction in cell viability incubated for 72 hrs by MTT assay. The series is classed as toxicity, cell-based. To be noted: chlorocebus sabaeus.

Turning to `COc1cccc(Sc2nc(Cc3cc(C)cc(C)c3)c(C)c(=O)[nH]2)c1`, the EC50 in [1] stood at 1600 nM. The CC50 – broadly, the concentration that lowers cell viability or growth by half – in series [2] was greater than 100 µM.
On to `Cc1c(C(=O)c2c(F)cccc2F)nc(N(C)C)[nH]c1=O`, for which the figures for the EC50 in series [3], in [4] and in series [5] were 300 nM, 94 µM and greater than 100 µM, respectively. Also, in [6], the cytotoxic concentration (CC50) was greater than 100 µM.
On to `CCC(C)Oc1nc(Cc2cc(C)cc(C)c2)c(C)c(=O)[nH]1` (configuration not stated), for which the selectivity ratio in series [7] is greater than 416. Moreover, the 50% cytotoxic concentration (CC50) in series [8] is greater than 333 µM. Further, the EC50 in [9] came to 800 nM. Also, the 50% inhibitory concentration (IC50) (usually the concentration at which inhibition is half-maximal) in [10] is 2000 nM.
In the same order, the values of `CCC(C)Oc1nc(Sc2ccccc2)nc(N)c1C` (configuration not stated) are greater than 45, greater than 364 µM, 8000 nM and 28000 nM.
Regarding `Cc1c(C2(c3c(F)cccc3F)CC2)nc(SC2CCCC2)[nH]c1=O`, the EC50 in series [11] stood at 5 nM. Further, the selectivity ratio in [7] turned out to be 2660. Moreover, in series [2], it took 14 µM to reach half-maximal cytotoxicity (CC50).
For the compound `CCc1nc(SC)n(COCc2ccccc2)c1CC1CCCCC1`, in series [12], it took 25 µM to reach half-maximal cytotoxicity (CC50).
With `CCc1c(Cc2cc(C)cc(C)c2)nc2n(c1=O)COCCS2`, in [13], the EC50 is 1600 nM.
In the case of `CCOC1CSc2nc(=O)c(CC)c(Cc3cc(C)cc(C)c3)n21` (configuration not stated), the EC50 in series [13] is 700 nM.
For `CCC(C)Sc1nc(Cc2cc(C)cc(C)c2)cc(=O)[nH]1` (configuration not stated), the EC50 in [14] amounted to 1.2 µM. In addition, in [15], the half-maximal cytotoxic concentration (CC50) worked out at 150 µM.
Consider `CCC(C)Sc1nc(Cc2cc(C)cc(C)c2)c(Br)c(=O)[nH]1` (configuration not stated), for which the EC50 in series [14] was found to be 6.7 µM. For the same compound, the cytotoxic concentration (CC50) in [15] is 153 µM.
Consider `CSc1nc(N)c(C)c(C(=O)c2ccc(F)cc2)n1`, for which the EC50 in series [16] amounted to 580 nM; in [17] it was 5950 nM; in [18], 210 nM; in series [19] it was 210 nM.
As to `CCCN(C)c1nc(C(C)c2c(F)cccc2F)c(C)c(=O)[nH]1` (configuration not stated), the Ki (as a rule, the equilibrium dissociation constant of an inhibitor or competing ligand from its target) in series [20] came to 170 nM; in [21], 1430 nM. The EC50 in series [16] turned out to be 5 nM.
As to `COc1ccc(CNc2nc(C(C)c3c(F)cccc3F)cc(=O)[nH]2)cc1` (configuration not stated), the EC50 is 2230 nM in series [17], 60 nM in [18], 3 nM in series [23] and greater than 5000 nM in series [19]. This compound yielded an IC50 in series [22] of 5000 nM.
`Cc1c(C(C)c2c(F)cccc2F)nc(NC2CCCCC2)[nH]c1=O` (configuration not stated): the CC50 in series [24] was found to be 90 µM. Further, the concentration for half-maximal inhibition (IC50) in series [25] is 35 nM. Besides, in [26], the EC50 was found to be 20 nM.
Compound `CSc1nc(C(C)C)c(CC2CCCCC2)n1COCc1ccccc1` registered a CC50 in series [12] of 31 µM.
As for `CSCSc1nc(Cc2c(F)cccc2Cl)cc(=O)[nH]1`, in series [27], the EC50 is 0.4 µM. The half-maximal cytotoxic concentration (CC50) at 72 h in series [28] was 55.3 µM.
With `CCCNc1nc(C(C)c2c(F)cccc2F)c(C)c(=O)[nH]1` (configuration not stated), the half-maximal cytotoxic concentration (CC50) in series [24] was greater than 200 µM. In [25], this compound yielded an IC50 of 30 nM. Besides, the EC50 in series [26] was found to be 20 nM.
`Cc1cccc(Cc2cc(=O)[nH]c(OC3CCCCC3)n2)c1`: the selectivity ratio in series [7] is greater than 418. The CC50 in series [8] is greater than 335 µM. Moreover, in series [9], the EC50 came to 800 nM. Besides, the half-inhibitory concentration (IC50) in [10] is 1800 nM.
As for `Cc1cc(C)cc(OCCSc2nc(Cc3c(F)cccc3F)cc(=O)[nH]2)c1`, in series [27], the EC50 is 11.2 µM. In series [28], the CC50 at 72 h stood at 90 µM.
Turning to `COc1ccc(CN(C)c2nc(C(C)c3c(F)cccc3F)cc(=O)[nH]2)cc1` (configuration not stated), the EC50 was 3 nM in series [17], 1610 nM in series [18], 2 nM in series [23] and 10 nM in series [19]. Moreover, half-maximal inhibition in [22] (IC50) required 1050 nM.
`CSc1nc(C(C)C)c(Cc2ccccc2)n1COCc1ccccc1` showed a cytotoxic concentration (CC50) in series [12] of 29 µM.
As to `COc1ccc(C2CC2CNc2nc(C(C)c3c(F)cccc3F)cc(=O)[nH]2)cc1` (configuration not stated), the EC50 in series [17] is 130 nM; in series [18] it was 100 nM; in [23], 1 nM; in [19] it was greater than 5000 nM. Further, in series [22], half-maximal inhibition (IC50) was put at 880 nM.

The values are drawn from ChEMBL document CHEMBL6115028, “An Amazing 30-Year Journey around the DABO Family: A Medicinal Chemistry Lesson on a Versatile Class of Non-nucleoside HIV-1 Reverse Transcriptase Inhibitors” (J Med Chem, 2025).
